Patent publication US11220524B2, “Selective inhibitors of protein arginine methyltransferase 5 (PRMT5)” (PRELUDE THERAPEUTICS, INCORPORATED, priority 2017, dated 2022)
Structures can show the parent of a compound that is named as a salt. Where two headings read alike, the source gives them in different places.

Experiments:
PRMT5/MEP50 complex = PRMT5/MEP50 complex (Homo sapiens (Human), UniProt O14744); test: Biochemical assay: PRMT5/MEP50 methylation of histone H2A with 3H-SAM, filter plate scintillation
Method: Biochemical Assay Protocol
Compounds were solubilized, and 3-fold diluted in 100% DMSO. […] Standard reactions were performed in a total volume of […] assay buffer, with histone H2A (5 μM final) as substrate. To this was added the PRMT5/MEP50 complex diluted to provide a final assay concentration of 5 nM and the compounds were allowed to preincubate for 15 to 20 minutes at room temperature. The reaction was initiated by adding S-[3H-methyl]-adenosyl-L-methionine (PerkinElmer) to final concentration of 1 μM. Following a 60 minutes incubation at 30° C., the reaction was stopped by adding 100 μL of 20% TCA. Each reaction was spotted onto filter plate (MultiScreen FB Filter Plate, Millipore), and washed 5 times with PBS buffer, Scintillation fluid was added to the filter plate and read in a scintillation counter. IC50 values were determined by fitting the data to the standard 4 parameters with Hill Slope using GraphPad Prism software.

[1] = system: Symmetric Di-Methyl Arginine (sDMA) in Granta-519 cells; test: Western blot for symmetric di-methyl arginine (sDMA) marks in Granta cells, 3 days treatment; type: cell-based; conditions: Homo sapiens, 3 days
Method: Cell Treatment and Western Blotting for Detecting Symmetric Di-Methyl Arginine (sDMA) and Histone H3R8 Dimethyl Symmetric (H3R8me2s) Marks
Initial compounds screening in A549 cells: Compounds were dissolved in DMSO to make 10 mM stock and further diluted to 0.1, and 1 mM. A549 cells were maintained in PRMI 1640 (Corning Cellgro, Catalog #: 10-040-CV) medium supplemented with 10% v/v FBS (GE Healthcare, Catalog #: SH30910.03). One day before experiment, 1.25×10^5 cells were seeded in 6 well plate in 3 mL medium and incubated overnight. The next day, medium was changed and 3 uL of compound solution was added (1:1,000 dilution, 0.1 and 1 uM final concentration; DMSO concentration: 0.1%), and incubated for 3 days. Cells incubated with DMSO was used as a vehicle control. Cells were washed once with PBS, trypsinized in 150 uL 0.25% Trypsin (Corning, Catalog #: 25-053-CI), neutralized with 1 mL complete medium, transferred to microcentrifuge tubes and collected. Cell pellet was then resuspended in 15 uL PBS, lysed in 4% SDS, and homogenized by passing through homogenizer column (Omega Biotek, Catalog #: HCR003). Total protein concentrations were determined by BCA assay (ThermoFisher Scientific, Catalog #: 23225). Lysates were mixed with 5× Laemmli buffer and boiled for 5 min. Forty ug of total protein was separated on SDS-PAGE gels (Bio-Rad, catalog #: 4568083, 4568043), transferred to PVDF membrane, blocked with 5% dry milk (Bio-Rad, Catalog #: 1706404) in TBS with 0.1% v/v Tween 20 (TBST) for 1 hour at room temperature (RT), and incubated with primary antibodies (sDMA: Cell signaling, Catalog #: 13222, 1:3,000; H3R8me2s: Epigentek, Catalog #: A-3706-100, 1:2,000; β-Actin: Abcam, Catalog #: ab8227, 1:10,000) in 5% dry milk in TBST at 4° C. for overnight. The next day, membranes were washed with TBST, 5×5 min, and incubated withhP conjugated seconded antibody (GE Healthcare; Catalog #: NA934-1ML; 1:5,000) for 2 hours at RT, followed by 5×5 min washes with TBST, and incubation with ECL substrates (Bio-Rad, Catalog #: 1705061, 1705062). Chemiluminescent signal was captured with FluoChem HD2 imager (Proteinsimple) and analyzed by ImageJ.
Cells incubated with DMSO was used as a vehicle control. Cells were harvested and subjected to western blot analysis as described above. SmD3me2s and H3R8me2s bands were quantified by ImageJ. Signals were normalized to β-Actin and DMSO control. IC50 values were calculated using Graphpad Prism.

[2] = biochemical potency, read-out: PRTMT5/MEP50 IC50
[3] = Granta-519, 72 h, Granta cell line
[4] = histone H2A 5 μM, SAM 1 μM, enzyme 5 nM, read-out: PRMT5/MEP50 IC50

Chain of PRMT5/MEP50 complex (O14744 whole entry): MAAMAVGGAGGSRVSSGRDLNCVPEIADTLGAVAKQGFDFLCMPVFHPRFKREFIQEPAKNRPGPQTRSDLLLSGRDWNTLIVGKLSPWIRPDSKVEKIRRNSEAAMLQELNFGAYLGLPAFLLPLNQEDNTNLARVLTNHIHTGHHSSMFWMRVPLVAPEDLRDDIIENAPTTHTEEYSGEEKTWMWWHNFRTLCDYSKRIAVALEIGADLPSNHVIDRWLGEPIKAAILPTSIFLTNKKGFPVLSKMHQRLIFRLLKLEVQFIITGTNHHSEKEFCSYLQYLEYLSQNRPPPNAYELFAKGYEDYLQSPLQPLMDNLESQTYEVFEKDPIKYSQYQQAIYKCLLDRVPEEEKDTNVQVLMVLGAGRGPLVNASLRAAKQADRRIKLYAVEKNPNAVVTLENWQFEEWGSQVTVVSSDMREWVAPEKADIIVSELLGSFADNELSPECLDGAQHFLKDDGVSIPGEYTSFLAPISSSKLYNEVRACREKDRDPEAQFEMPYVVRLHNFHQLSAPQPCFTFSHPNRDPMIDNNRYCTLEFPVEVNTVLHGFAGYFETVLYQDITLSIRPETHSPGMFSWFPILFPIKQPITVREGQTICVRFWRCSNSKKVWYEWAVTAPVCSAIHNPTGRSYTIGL
Chain of PRMT5/MEP50 complex (Q9BQA1 whole entry partner): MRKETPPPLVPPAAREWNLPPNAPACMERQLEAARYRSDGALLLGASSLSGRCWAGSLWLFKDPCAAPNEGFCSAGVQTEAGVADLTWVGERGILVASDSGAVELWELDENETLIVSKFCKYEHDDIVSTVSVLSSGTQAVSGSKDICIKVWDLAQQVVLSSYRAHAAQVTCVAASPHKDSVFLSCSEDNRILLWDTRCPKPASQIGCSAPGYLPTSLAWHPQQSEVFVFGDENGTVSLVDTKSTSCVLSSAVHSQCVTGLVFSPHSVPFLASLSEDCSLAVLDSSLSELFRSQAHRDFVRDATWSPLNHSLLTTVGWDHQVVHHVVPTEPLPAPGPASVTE

Row | SMILES | IC50 (PRMT5/MEP50 complex; [2]) | IC50 [1, 3] | IC50 (PRMT5/MEP50 complex; [4]) | IC50 ([1]; 72 h, Granta-519 cell line)
1 | CO/N=c1\nc[nH]c2c1ccn2[C@@H]1C[C@H](CCc2ccc3ccc(N)nc3c2)[C@@H](O)[C@H]1O [Example 85-B, 7-((1R,2S,3R,4S)-4-(2-(2-aminoquinolin-7-yl)ethyl)-2,3-dihydroxycyclopentyl)-1,7-dihydro-4H-pyrrolo[2,3-d]pyrimidin-4-one O-methyl oxime] | 0.64 nM | 0.9 nM |  | 
2 | CN/N=c1\nc[nH]c2c1ccn2[C@@H]1O[C@H]([C@H](O)c2ccc(Cl)c(Cl)c2)[C@@H](O)[C@H]1O [compound 81, (2R,3S,4R,5R)-2-((R)-(3,4-dichlorophenyl)(hydroxy)methyl)-5-(4-(2-methylhydrazineylidene)-1,4-dihydro-7H-pyrrolo[2,3-d]pyrimidin-7-yl)tetrahydrofuran-3,4-diol] |  |  | 0.3 nM | 9 nM
3 | CO/N=c1\nc[nH]c2c1ccn2[C@@H]1O[C@H]([C@H](O)c2ccc(C(F)(F)F)c(C)c2)[C@@H](O)[C@H]1O [Example 98, 7-((2R,3R,4S,5R)-3,4-dihydroxy-5-((R)-hydroxy(3-methyl-4-(trifluoromethyl)phenyl)methyl)tetrahydrofuran-2-yl)-1,7-dihydro-4H-pyrrolo[2,3-d]pyrimidin-4-one O-methyl oxime] |  |  | 8.4 nM | 9 nM
4 | C[C@@](O)(c1ccc(Cl)cc1)[C@H]1O[C@@H](n2ccc3/c(=N/O)nc[nH]c32)[C@H](O)[C@@H]1O [compound 59, 7-((2R,3R,4S)-5-((R)-1-(4-chlorophenyl)-1-hydroxyethyl)-3,4-dihydroxytetrahydrofuran-2-yl)-1,7-dihydro-4H-pyrrolo[2,3-d]pyrimidin-4-one oxime hydrochloride] |  |  | 2.8 nM | 45 nM
5 | CO/N=c1\nc[nH]c2c1ccn2[C@@H]1O[C@H]([C@](C)(O)c2ccc(Cl)cc2)[C@@H](O)[C@H]1O [compound 60, 7-((2R,3R,4S)-5-((R)-1-(4-chlorophenyl)-1-hydroxyethyl)-3,4-dihydroxytetrahydrofuran-2-yl)-1,7-dihydro-4H-pyrrolo[2,3-d]pyrimidin-4-one O-methyl oxime] |  |  | 37.7 nM | 438 nM
6 | CO/N=c1\nc[nH]c2c1ccn2[C@@H]1C[C@H](CCc2ccc3cc(Cl)c(N)nc3c2)[C@@H](O)[C@H]1O [Example 86-B, (Z)-7-((1R,2S,3R,4S)-4-(2-(2-amino-3-chloroquinolin-7-yl)ethyl)-2,3-dihydroxycyclopentyl)-3,7-dihydro-4H-pyrrolo[2,3-d]pyrimidin-4-one O-methyl oxime] | 0.2 nM | 3 nM |  | 
7 | C[C@@](O)(c1ccc(Cl)s1)[C@H]1O[C@@H](n2ccc3c(N)ncnc32)[C@H](O)[C@@H]1O [Example 21-C, (2R,3R,4S,5S)-2-(4-amino-7H-pyrrolo[2,3-d]pyrimidin-7-yl)-5-((S)-1-(5-chlorothiophen-2-yl)-1-hydroxyethyl)tetrahydrofuran-3,4-diol] | 0.9 nM | 7 nM |  | 
8 | CO/N=c1/nc[nH]c2c1ccn2[C@@H]1O[C@H]([C@](C)(O)c2ccc(Cl)c(F)c2)[C@@H](O)[C@H]1O [Example 96] |  |  |  | 142 nM
9 | C[C@@H](c1ccc(Cl)cc1)[C@H]1O[C@@H](n2ccc3c(N)ncnc32)[C@H](O)[C@@H]1O [Example 5-C, (2R,3R,4S,5R)-2-(4-amino-7H-pyrrolo[2,3-d]pyrimidin-7-yl)-5-((S)-1-(4-chlorophenyl)ethyl)tetrahydrofuran-3,4-diolhydrochloride] |  | 91 nM |  | 

Continued, values first:

Row | IC50 (PRMT5/MEP50 complex; [2]) | IC50 [1, 3] | IC50 (PRMT5/MEP50 complex; [4]) | IC50 ([1]; 72 h, Granta-519 cell line) | SMILES
10 | 6.9 nM | 93 nM |  |  | CC(c1ccc(Cl)cc1)C1O[C@@H](n2ccc3c(N)ncnc32)[C@H](O)[C@@H]1O (stereo in doubt) [Example 6-C, (2R,3R,4S,5S)-2-(4-amino-7H-pyrrolo[2,3-d]pyrimidin-7-yl)-5-(1-(4-chlorophenyl)ethyl)tetrahydrofuran-3,4-diol]
11 |  |  | 0.7 nM | 10.8 nM | O/N=c1/nc[nH]c2c1ccn2[C@@H]1O[C@H]([C@H](O)c2ccc(Cl)c(F)c2)[C@@H](O)[C@H]1O [compound 63, 7-((2R,3R,4S,5R)-5-((R)-(4-chloro-3-fluorophenyl)(hydroxy)methyl)-3,4-dihydroxytetrahydrofuran-2-yl)-1,7-dihydro-4H-pyrrolo[2,3-d]pyrimidin-4-one oxime]
12 |  |  | 8.3 nM | 93 nM | CN/N=c1\nc[nH]c2c1ccn2[C@@H]1O[C@H]([C@H](O)c2ccc(Cl)cc2)[C@@H](O)[C@H]1O [compound 64, (2R,3S,4R,5R)-2-[(R)-(4-chlorophenyl)-hydroxy-methyl]-5-[4-(methylhydrazono)-1H-pyrrolo[2,3-d]pyrimidin-7-yl]tetrahydrofuran-3,4-diol hydrochloride]
13 |  |  | 0.6 nM | 10 nM | O/N=c1\nc[nH]c2c1ccn2[C@@H]1O[C@H]([C@H](O)c2ccc(F)c(F)c2)[C@@H](O)[C@H]1O [compound 67, 7-((2R,3R,4S,5R)-5-((R)-(3,4-difluorophenyl)(hydroxy)methyl)-3,4-dihydroxytetrahydrofuran-2-yl)-1,7-dihydro-4H-pyrrolo[2,3-d]pyrimidin-4-one oxime]
14 | 0.9 nM | 3.8 nM |  |  | C[C@@](O)(c1ccc(Cl)c(Cl)c1)[C@H]1O[C@@H](n2cc(F)c3c(N)ncnc32)[C@H](O)[C@@H]1O [Example 3-C, (2R,3R,4S,5S)-2-(4-amino-5-fluoro-7H-pyrrolo[2,3-d]pyrimidin-7-yl)-5-((R)-1-(3,4-dichlorophenyl)-1-hydroxyethyl)tetrahydrofuran-3,4-diol]
15 |  |  |  | 97 nM | CCO/N=c1\nc[nH]c2c1ccn2[C@@H]1O[C@H]([C@](C)(O)c2ccc(Cl)cc2)[C@@H](O)[C@H]1O [Example 83, 7-((2R,3R,4S)-5-((R)-1-(4-chlorophenyl)-1-hydroxyethyl)-3,4-dihydroxytetrahydrofuran-2-yl)-1,7-dihydro-4H-pyrrolo[2,3-d]pyrimidin-4-one O-ethyl oxime]
16 |  |  | 9.7 nM | 313 nM | N/N=c1/nc[nH]c2c1c(F)cn2[C@@H]1O[C@H]([C@H](O)c2ccc(Cl)cc2)[C@@H](O)[C@H]1O [compound 73, (2R,3S,4R,5R)-2-((R)-(4-chlorophenyl)(hydroxy)methyl)-5-(5-fluoro-4-hydrazineylidene-1,4-dihydro-7H-pyrrolo[2,3-d]pyrimidin-7-yl)tetrahydrofuran-3,4-diol]
17 |  |  | 3.9 nM | 11 nM | CCO/N=c1/[nH]cnc2c1ccn2[C@@H]1O[C@H]([C@H](O)c2ccc(Cl)c(Cl)c2)[C@@H](O)[C@H]1O [compound 82, 7-((2R,3R,4S,5R)-5-((R)-(3,4-dichlorophenyl)(hydroxy)methyl)-3,4-dihydroxytetrahydrofuran-2-yl)-3,7-dihydro-4H-pyrrolo[2,3-d]pyrimidin-4-one O-ethyl oxime]
18 |  |  | 2.8 nM | 41 nM | O/N=c1/nc[nH]c2c1c(F)cn2[C@@H]1O[C@H]([C@H](O)c2ccc(Cl)cc2)[C@@H](O)[C@H]1O [compound 72, 7-((2R,3R,4S,5R)-5-((R)-(4-chlorophenyl)(hydroxy)methyl)-3,4-dihydroxytetrahydrofuran-2-yl)-5-fluoro-1,7-dihydro-4H-pyrrolo[2,3-d]pyrimidin-4-one oxime]
19 | 13.5 nM | 13 nM |  |  | Cc1cc([C@@](C)(O)[C@H]2O[C@@H](n3cnc4c(N)ncnc43)[C@H](O)[C@@H]2O)ccc1Cl [Example 2-C, (2R,3R,4S,5S)-2-(6-amino-9H-purin-9-yl)-5-((R)-1-(4-chloro-3-methylphenyl)-1-hydroxyethyl)tetrahydrofuran-3,4-diol]
